Where a name gives a salt, the structure may show the parent alone.
How the values were obtained:
[1] = molecular target: T1, BACE2 (Rattus norvegicus, UniProt Q6IE75); test: Assay for BACE inhibition by measuring cellular TMEM27 cleavage; format: cell-based; conditions: INS-TMEM27 (INS1e-derived) cells, ELISA of shed human TMEM27 in supernatant;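 also: inhibitor added 2 h before doxycycline-induced hTMEM27 expression, supernatant collected after further 46 h, endogenous BACE2 activity read as reduced TMEM27 shedding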
T1 construct: endogenous cellular BACE2 in the Ins1e rat cell line; endogenous in cells; host or cells: INS-TMEM27 (INS1e-derived rat cell line with doxycycline-inducible full-length hTMEM27)
T1 sequence (Q6IE75 63-514): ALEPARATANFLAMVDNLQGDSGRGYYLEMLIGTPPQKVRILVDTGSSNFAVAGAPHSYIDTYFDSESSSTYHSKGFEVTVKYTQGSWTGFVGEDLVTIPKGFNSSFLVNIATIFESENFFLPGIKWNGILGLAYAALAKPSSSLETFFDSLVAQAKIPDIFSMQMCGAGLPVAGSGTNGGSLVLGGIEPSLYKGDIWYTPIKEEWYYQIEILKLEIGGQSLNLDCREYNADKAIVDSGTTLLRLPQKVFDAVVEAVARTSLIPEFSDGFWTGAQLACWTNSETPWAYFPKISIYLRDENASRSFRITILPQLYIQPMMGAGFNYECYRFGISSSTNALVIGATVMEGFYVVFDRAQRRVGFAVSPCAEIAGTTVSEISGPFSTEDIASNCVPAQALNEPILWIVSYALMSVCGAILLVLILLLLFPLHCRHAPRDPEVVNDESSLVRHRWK

[2] = molecular target: T2, BACE2 (Homo sapiens, UniProt Q9Y5Z0); test: Assay A: binding studies using SPR based methods, immobilised BACE2; conditions: CM5 chip, immobilised BACE2 enzyme ectodomain, acetate buffer pH 4.6, 4% DMSO
T2 construct: BACE2 enzyme ectodomain (derived from plasmid “pET17b-T7-hu proBACE2”); T7 (N); made in house
T2 sequence (Q9Y5Z0 63-473 limits assumed): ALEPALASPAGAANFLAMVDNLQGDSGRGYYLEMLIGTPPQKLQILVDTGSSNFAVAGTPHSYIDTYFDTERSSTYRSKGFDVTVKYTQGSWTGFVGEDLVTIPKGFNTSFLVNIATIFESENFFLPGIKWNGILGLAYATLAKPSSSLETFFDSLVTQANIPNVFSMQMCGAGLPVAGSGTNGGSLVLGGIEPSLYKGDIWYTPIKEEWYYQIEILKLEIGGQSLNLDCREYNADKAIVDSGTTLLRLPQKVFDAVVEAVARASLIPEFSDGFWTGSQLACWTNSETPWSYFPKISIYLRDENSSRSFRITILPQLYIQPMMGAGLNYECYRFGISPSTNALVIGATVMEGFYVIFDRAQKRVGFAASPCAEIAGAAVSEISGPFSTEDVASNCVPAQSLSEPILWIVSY

[3] = molecular target: T3, BACE1 (Homo sapiens, UniProt P56817); test: Cellular Abeta-lowering assay; format: cell-based; set-up: endogenous in cells; host or cells: HEK293 stably transfected with human APP695 wt; conditions: HEK293 cells stably transfected with human APP wt (APP695), Aβ40 ELISA of supernatant after 18-20 hrs
[4] = molecular target: T3, BACE1; test: Assay A: binding studies using SPR based methods, immobilised BACE1; set-up: 6his-tagged full length BACE 1 expressed in SF9 cells; 6His; made in house; host or cells: SF9 insect cells; conditions: CM5 chip, immobilised 6his-tagged full length BACE 1, acetate buffer pH 4.6, 4% DMSO;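 also: KD from a 1:1 kinetic fit (koff/kon) of real-time association and dissociation curves, or for fast binders from end-of-association equilibrium responses plotted against log concentration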

T3 sequence (P56817 46-501): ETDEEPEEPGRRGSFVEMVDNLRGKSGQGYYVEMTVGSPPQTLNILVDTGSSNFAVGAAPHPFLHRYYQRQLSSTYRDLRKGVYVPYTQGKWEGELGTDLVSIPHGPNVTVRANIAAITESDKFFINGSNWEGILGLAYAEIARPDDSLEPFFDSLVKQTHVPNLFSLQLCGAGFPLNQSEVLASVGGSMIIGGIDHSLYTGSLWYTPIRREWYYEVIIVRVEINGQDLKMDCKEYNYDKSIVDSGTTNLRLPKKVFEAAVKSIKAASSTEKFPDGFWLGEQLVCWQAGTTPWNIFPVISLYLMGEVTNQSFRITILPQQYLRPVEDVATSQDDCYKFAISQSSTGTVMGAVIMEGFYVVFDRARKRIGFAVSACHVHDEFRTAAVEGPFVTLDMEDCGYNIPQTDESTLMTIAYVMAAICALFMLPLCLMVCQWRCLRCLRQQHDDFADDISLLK

SMILES	IC50 [1]	Kd [2]	IC50 [3]	Kd [4]
CC1(c2cc(NC(=O)c3ccc(Cl)cn3)ccc2F)COCC(N)=N1 (racemic) [Example 20, (RS)-5-chloro-pyridine-2-carboxylic acid [3-(5-amino-3-methyl-3,6-dihydro-2H-[1,4]oxazin-3-yl)-4-fluoro-phenyl]-amide]	6 nM	8 nM	–	–
CC1(c2cc(NC(=S)c3ccc(Cl)cc3)ccc2F)COCC(N)=N1 (racemic) [Example 27, (RS)—N-[3-(5-Amino-3-methyl-3,6-dihydro-2H-[1,4]oxazin-3-yl)-4-fluoro-phenyl]-4-chloro-thiobenzamide]	320 nM	–	1130 nM	–
CC1(c2cc(NC(=O)C3(C(F)(F)F)CC3)ccc2F)COCC(N)=N1 (racemic) [Example 57]	320 nM	1800 nM	–	> 10000 nM
Cc1nc(C(=O)Nc2cccc(C3(C)COCC(N)=N3)c2)co1 (racemic) [Example 12, (RS)-2-methyl-oxazole-4-carboxylic acid [3-(5-amino-3-methyl-3,6-dihydro-2H-[1,4]oxazin-3-yl)-phenyl]-amide]	17 nM	–	20 nM	–
CC1(c2cccc(NC(=O)c3ncc(F)cc3F)c2)COCC(N)=N1 (racemic) [Example 1, (RS)-3,5-Difluoro-pyridine-2-carboxylic acid [3-(5-amino-3-methyl-3,6-dihydro-2H-[1,4]oxazin-3-yl)-phenyl]-amide]	21 nM	44 nM	–	–
Cc1nc(C(=O)Nc2cccc(C3(C)COCC(N)=N3)c2)c(C)o1 (racemic) [Example 11, (RS)-2,5-dimethyl-oxazole-4-carboxylic acid [3-(5-amino-3-methyl-3,6-dihydro-2H-[1,4]oxazin-3-yl)-phenyl]-amide]	–	44 nM	41 nM	490 nM
C[C@@]1(c2cc(NC(=O)c3ccc(Cl)cn3)ccc2F)COCC(N)=N1 [Example 21, (R)-5-chloro-pyridine-2-carboxylic acid [3-(5-amino-3-methyl-3,6-dihydro-2H-[1,4]oxazin-3-yl)-4-fluoro-phenyl]-amide]	2 nM	4 nM	–	–
CC1(c2cccc(NC(=O)c3ccncn3)c2)COCC(N)=N1 (racemic) [Example 63, pyrimidine-4-carboxylic acid [3-((RS)-5-amino-3-methyl-3,6-dihydro-2H-[1,4]oxazin-3-yl)-phenyl]-amide]	–	1090 nM	510 nM	3060 nM
C[C@@]1(c2cc(NC(=O)c3ccc(C#N)cc3F)ccc2F)COCC(N)=N1 [Example 42, N-[3-((R)-5-amino-3-methyl-3,6-dihydro-2H-[1,4]oxazin-3-yl)-4-fluoro-phenyl]-4-cyano-2-fluoro-benzamide]	–	2550 nM	190 nM	208 nM
CC1(c2cccc(NC(=O)c3ccc(OCC(F)(F)F)cn3)c2)COCC(N)=N1 (racemic) [Example 24, (RS)-5-(2,2,2-Trifluoro-ethoxy)-pyridine-2-carboxylic acid [3-(5-amino-3-methyl-3,6-dihydro-2H-[1,4]oxazin-3-yl)-phenyl]-amide hydrochloride]	–	5750 nM	120 nM	1880 nM
CC1(c2cccc(NC(=O)c3ncc(C(F)(F)F)cc3Cl)c2)COCC(N)=N1 (racemic) [Example 33, 3-Chloro-5-trifluoromethyl-pyridine-2-carboxylic acid [3-((RS)-5-amino-3-methyl-3,6-dihydro-2H-[1,4]oxazin-3-yl)-phenyl]-amide]	–	141 nM	26 nM	77 nM
CC1(c2cc(NC(=O)c3cc(-c4cccs4)on3)ccc2F)COCC(N)=N1 (racemic) [Example 78, 5-thiophen-2-yl-isoxazole-3-carboxylic acid [3-((RS)-5-amino-3-methyl-3,6-dihydro-2H-[1,4]oxazin-3-yl)-4-fluoro-phenyl]-amide]	–	6500 nM	500 nM	885 nM
CC1(c2cccc(NC(=O)c3ccc(OCC4CC4)cn3)c2)COCC(N)=N1 (racemic) [Example 60, 5-cyclopropylmethoxy-pyridine-2-carboxylic acid [3-((RS)-5-amino-3-methyl-3,6-dihydro-2H-[1,4]oxazin-3-yl)-phenyl]-amide hydrochloride]	–	117 nM	140 nM	112 nM
CC1(c2cccc(NC(=O)c3ccc(OCCF)cn3)c2)COCC(N)=N1 (racemic) [Example 61, 5-(2-fluoro-ethoxy)-pyridine-2-carboxylic acid [3-((RS)-5-amino-3-methyl-3,6-dihydro-2H-[1,4]oxazin-3-yl)-phenyl]-amide hydrochloride]	–	4680 nM	390 nM	440 nM
CC1(c2cc(NC(=O)c3ccc(-c4cnco4)cc3)ccc2F)COCC(N)=N1 (racemic) [Example 52, (RS)—N-[3-(5-amino-3-methyl-3,6-dihydro-2H-[1,4]oxazin-3-yl)-4-fluoro-phenyl]-4-oxazol-5-yl-benzamide]	–	> 10000 nM	1180 nM	194 nM
C=CCCOc1ccc(C(=O)Nc2cccc(C3(C)COCC(N)=N3)c2)nc1 (racemic) [Example 64, 5-but-3-enyloxy-pyridine-2-carboxylic acid [3-((RS)-5-amino-3-methyl-3,6-dihydro-2H-[1,4]oxazin-3-yl)-phenyl]-amide]	–	7820 nM	660 nM	483 nM
CC1(c2cc(NC(=O)C(F)(F)C(F)(F)F)ccc2F)COCC(N)=N1 (racemic) [Example 26, (RS)—N-[3-(5-Amino-3-methyl-3,6-dihydro-2H-[1,4]oxazin-3-yl)-4-fluoro-phenyl]-2,2,3,3,3-pentafluoro-propionamide]	2230 nM	–	375 nM	–
Cc1nc(C(F)(F)F)c(C(=O)Nc2ccc(F)c([C@]3(C)COCC(N)=N3)c2)s1 [Example 47, 2-methyl-4-trifluoromethyl-thiazole-5-carboxylic acid [3-((R)-5-amino-3-methyl-3,6-dihydro-2H-[1,4]oxazin-3-yl)-4-fluoro-phenyl]-amide]	730 nM	–	800 nM	–
CC1(C)OCC(N)=N[C@]1(C)c1cc(NC(=O)C2(C(F)(F)F)CC2)ccc1F [Example 55, 1-trifluoromethyl-cyclopropanecarboxylic acid [3-((R)-5-amino-2,2,3-trimethyl-3,6-dihydro-2H-[1,4]oxazin-3-yl)-4-fluoro-phenyl]-amide]	46 nM	2300 nM	–	6400 nM
C[C@@]1(c2cc(NC(=O)c3ncc(Cl)cc3Cl)ccc2F)COCC(N)=N1 [Example 34, 3,5-dichloro-pyridine-2-carboxylic acid [3-((R)-5-amino-3-methyl-3,6-dihydro-2H-[1,4]oxazin-3-yl)-4-fluoro-phenyl]-amide]	4 nM	3 nM	–	–
Cc1cnc(C(=O)Nc2cccc(C3(C)COCC(N)=N3)c2)cn1 (racemic) [Example 65, 5-methyl-pyrazine-2-carboxylic acid [3-((RS)-5-amino-3-methyl-3,6-dihydro-2H-[1,4]oxazin-3-yl)-phenyl]-amide]	–	1120 nM	180 nM	2470 nM
CC1(c2cccc(NC(=O)c3ccc(OCC(F)F)cn3)c2)COCC(N)=N1 (racemic) [Example 62, 5-(2,2-difluoro-ethoxy)-pyridine-2-carboxylic acid [3-((RS)-5-amino-3-methyl-3,6-dihydro-2H-[1,4]oxazin-3-yl)-phenyl]-amide hydrochloride]	–	7340 nM	270 nM	5520 nM
NC1=NC(c2cc(NC(=O)c3ccc(OCC(F)(F)F)cn3)ccc2F)(C2CC2)COC1 (racemic) [Example 23, (RS)-5-(2,2,2-Trifluoro-ethoxy)-pyridine-2-carboxylic acid [3-(5-amino-3-cyclopropyl-3,6-dihydro-2H-[1,4]oxazin-3-yl)-4-fluoro-phenyl]-amide]	–	10800 nM	160 nM	309 nM

— patent US20130196984A1, “3-AMINO-5-PHENYL-56-DIHYDRO-2H-[1,4]OXAZINES” (Siena Biotech S.p.A., priority 2009, published 2013)
